Experiments:
[1] = previously shown; cited from earlier work
[2] = system: PAF-Induced Paw Edema; test: Inhibition of PAF-induced paw edema; assay type: in vivo, CD-1 female mice; conditions: for Inhibition of PAF-Induced Paw Edema: vs vehicle treated controls, 15 min after PAF
Experimental: A second model, in which edema is induced by platelet activating factor (PAF), was used to evaluate activity.
(§1) The conditions were based on those reported previously [Calhoun et al., ibid.]. […] PAF (1.0 μq) or arachidonic acid (1.0 mg) dissolved in 50 μl of 5% ethanol in saline, were injected s.c. into the plantar surface of the right hind paw of CD-1 female mice (20-25 g) obtained from Charles River Labs. The mice were under ether anesthesia during this procedure. The volume of the right foot was measured to the level of the lateral malleotis by water displacement before treatment and 15 min after PAF injection or 30 min after archidonate injection. The change in paw volume was calculated for each mouse and the significance for each group was determined by a paired t test analysis.

[3] = system: peritoneal leukocytes; test: Leukocyte adhesion assay (peritoneal cells after oral dosing); assay type: in vivo, female CD-1 mice; conditions: cells collected 90 min after dosing; for number of adhering cells: ± S.D
Experimental: Leukocytes are thought to be major contributors to the inflammatory response and their ability in this regard is reflected by their adhesiveness to a variety of substrates [Audette, C. A., et al., ibid.] Sci., 47, 753 (1990)].
The details of the leukocytes adhesion assay have been previously reported [Audette et al., ibid.]. In brief, peritoneal cells from female CD-1 mice (20-25 g) were collected at 90 min following oral administration of the drug or vehicle (50 μl peanut oil). Cells from each treatment group (N=3) were pooled and equal numbers aliquoted into six culture dish wells (1.9 cm^2 area). After incubation for 18-20 hours, non-adhering cells were removed and the remaining cell monolayer quantitated by DNA measurement.

[4] = system: mouse hot plate test; test: Hot plate test for antinociception (55° C.); assay type: in vivo; conditions: 90 min before test
Experimental: In the hot plate test for analgesia an aluminum surface was maintained at 55±1° C. by circulating water through passages in the metal. A clear plastic cylinder 18 cm in diameter and 26 cm high was placed on the surface to prevent escape. The end point was taken when the mouse either performed a hind paw lick or jumped off the surface; in no case were the animals kept for more than 30 secs on the plate. Mice were never used more than one time; control values were always measured at 11 a.m. and test values at 2 p.m. The drugs were administered orally 90 min before the hot plate test. The percent change in response time (latency) was calculated by comparing the mean of the control values with the mean of the test values and statistical signficance determined by a paired tetest analysis using software (Statview, 512) from Brainpower, Inc., Calabasas, Calif.

[5] = system: Picrotoxin induced lethality; test: Protection against picrotoxin induced lethality; assay type: in vivo, Balb/c male mice; conditions: drug 10 mg/kg, 120 min before picrotoxin (8 mg/kg)
Experimental: (§2) The present compounds are active in several tests generally used to indicate neuroprotection.
(§3) Balb/c male mice were administered with the drug 90 min before treatment with NMDA (125 mq/kg) or 120 min before picrotoxin (8 mg/kg) in emulsion, s.c. The survival rate shown in Table VI indicates number of survivors out of total number of animals used.

[6] = system: N-methyl-D-aspartate (NMDA) induced lethality; test: Protection against NMDA induced lethality; assay type: in vivo, Balb/c male mice; conditions: drug 10 mg/kg, 90 min before NMDA
Experimental: as §2, §3

[7] = system: forebrain ischemia; test: Protection against forebrain ischemia (unilateral occlusion); assay type: in vivo; conditions: mongolian gerbils, result in words
Excerpt: as §2

[8] = system: Arachidonic Acid-Induced Paw Edema; test: Inhibition of arachidonic acid-induced paw edema; assay type: in vivo, CD-1 female mice
Excerpt: The induction of paw edema in rodents by injection of arachidonic acid has been used as an experimental model for inflammation [Calhoun, W., et al., Agents and Actions, 21, 306 (1987)]. Prior administration of non-steroidalanti-inflammatory drugs (NSAIDs) in many cases leads to a dose related inhibition of the edematous response which may be considered a predictor of clinical efficacy.
as §1

[9] = system: cataleptic response; test: Cataleptic effects, ring test; assay type: in vivo, mouse; conditions: 5 min test period, ± SD
Experimental: The lack of CNS activity for the compounds described herein may be seen from the data shown in Table V. This was measured by the so-called "ring test" [Pertwee, R. G., et al., J. Pharmacol., 46, 753 (1972)] in which the cataleptic effects of cannabinoids can be quantitated. The compounds produced little or no response when compared with the parent drug.
The cataleptic response was measured using the ring test. Mice were placed on a horizontal wire ring 5.5 cm in diameter, which was attached to a 16 cm vertical rod. The hind paws and fore paws were placed at opposite sides of the ring. It is important that the ambient temperature is maintained at 30° C. and that the environment be free of auditory stimuli and bright lights. The criteria for immobility are detailed by Pertwee. The response is calculated as the fraction of time the mouse is immobile over a 5 min. test period. Measurements were always done between 2 and 4 p.m. and the animals were used only once.

[10] = system: intraocular pressure; test: Reduction of intraocular pressure (anti-glaucoma); assay type: in vivo, rabbits; conditions: 50 μl drop of a 1% emulsion into rabbit eye
Experimental: Reduction of intraocular pressure in rabbits was determined by the addition of a 50 μl drop of a 1% emulsion of the cannabinoid into the rabbit eye. This test is a measure of anti-glaucoma activity.

| Compound | analgetic activity [1] | Inhibition of PAF-Induced Paw Edema ([2]; 0.5 mg/kg) | Inhibition of PAF-Induced Paw Edema ([2]; 1.0 mg/kg) | adhering cells, percent of control ([3]; 0.05 mg/kg oral) | number of adhering cells ([3]; 0.05 mg/kg oral) | adhering cells, percent of control ([3]; 0.10 mg/kg oral) | number of adhering cells ([3]; 0.10 mg/kg oral) | adhering cells, percent of control ([3]; 0.50 mg/kg oral) | number of adhering cells ([3]; 0.50 mg/kg oral) | adhering cells, percent of control ([3]; 1.00 mg/kg oral) | number of adhering cells ([3]; 1.00 mg/kg oral) | percent change in latency ([4]; 0.25 mg/kg oral) | percent change in latency ([4]; 0.50 mg/kg oral) | percent change in latency ([4]; 1.0 mg/kg oral) | Survival rate (survivors out of total) [5] | Survival rate (survivors out of total) [6] | protection against forebrain ischemia [7] | further results |
| --- | --- | --- | --- | --- | --- | --- | --- | --- | --- | --- | --- | --- | --- | --- | --- | --- | --- | --- |
| CCCCCc1cc(O)c2c(c1)OC(C)(C)[C@@H]1CCC(C(=O)O)=C[C@@H]21 [Compound 2, (3R,4R)-delta-1-tetrahydrocannabinol-7-oic acid] | analgetic | – | – | – | – | – | – | – | – | – | – | – | – | – | – | – | – | antiinflammatory activity [1]: antiinflammatory; psychotropic effects [1]: no psychotropic effects |
| CCCCCCC(C)(C)c1cc(O)c2c(c1)OC(C)(C)[C@H]1CC=C(CO)C[C@H]21 [HU-211, 7-hydroxy-delta-6-tetrahydrocannabinoldimethylheptyl, reference compound] | analgetic | 37.5% | 21.9% | 124% of control | 1.09 ± 0.08 number of adhering cells × 10^-6 | 50% of control | 0.44 ± 0.03 number of adhering cells × 10^-6 | 73% of control | 0.64 ± 0.06 number of adhering cells × 10^-6 | 67% of control | 0.59 ± 0.06 number of adhering cells × 10^-6 | 30.0% | 72.5% | -10.2% | 6/10 | 11/16 | shown to protect against forebrain ischemia | anti-NMDA activity [1]: anti-NMDA; antiemetic activity [1]: entiemetic |
| CCCCCCC(C)(C)c1cc(O)c2c(c1)OC(C)(C)[C@H]1CC=C(C(=O)O)C[C@H]21 [HU-235] | – | 60.1% | – | 102% of control | 1.29 ± 0.05 number of adhering cells × 10^-6 | 110% of control | 1.38 ± 0.17 number of adhering cells × 10^-6 | 116% of control | 1.46 ± 0.05 number of adhering cells × 10^-6 | 56% of control | 0.70 ± 0.12 number of adhering cells × 10^-6 | 61.5% | 61.5% | 51.7% | 8/12 | 7/10 | shown to protect against forebrain ischemia | Inhibition of Arachidonic Acid-Induced Paw Edema ([8]; 0.050 mg/kg, vs vehicle treated controls, 30 min after arachidonate): 42.1%; reduction of arachidonic acid paw edema ([8]; result in words): effective in reducing paw edema; Inhibition of PAF-Induced Paw Edema ([2]; 0.05 mg/kg): 44.4%; Inhibition of PAF-Induced Paw Edema ([2]; 0.10 mg/kg): 38.7%; Inhibition of PAF-Induced Paw Edema ([2]; 0.25 mg/kg): 31.9%; activity in PAF-induced edema ([2]; result in words): active; adhering cells, percent of control ([3]; 0.01 mg/kg oral): 106% of control; number of adhering cells ([3]; 0.01 mg/kg oral): 1.34 ± 0.14 number of adhering cells × 10^-6; percent change in latency ([4]; 0.02 mg/kg oral): 10.3%; percent change in latency ([4]; 0.05 mg/kg oral): 61.7%; percent change in latency ([4]; 0.10 mg/kg oral): 49.5%; percent change in latency ([4]; 2.0 mg/kg oral): 14.7%; cataleptic response (fraction of time immobile) ([9]; 0.25 mg/kg): 12.3 ± 10.3; cataleptic response (fraction of time immobile) ([9]; 0.5 mg/kg): 13.8 ± 7.9; cataleptic response (fraction of time immobile) ([9]; 1.0 mg/kg): 10.4 ± 10.6; cataleptic response (fraction of time immobile) ([9]; 4.0 mg/kg): 8.7 ± 5.6; reduction of intraocular pressure [10]: Significant reduction |
| CCCCCc1cc(O)c2c(c1)OC(C)(C)[C@@H]1CCC(C)=C[C@@H]21 [Δ^1 -THC, (3R,4R)-delta-1-tetrahydrocannabinol, reference compound] | – | – | – | – | – | – | – | – | – | – | – | – | – | – | – | – | – | cataleptic response (fraction of time immobile) ([9]; 40 mg/kg): 48.9 ± 16 |
| CCCCCc1cc(O)c2c(c1)OC(C)(C)[C@@H]1CC=C(C(=O)O)C[C@@H]21 [Δ^6 -THC-7-oic acid, reference compound] | – | N.S. | N.S. | – | – | – | – | – | – | – | – | – | – | – | – | – | – | Inhibition of PAF-Induced Paw Edema ([2]; 40.0 mg/kg): 50.2% |
| THC-7-oic Acid [reference compound] | – | – | – | – | – | – | – | – | – | – | – | – | – | – | – | – | – | adhering cells, percent of control ([3]; 20 mg/kg oral): 90.6% of control; number of adhering cells ([3]; 20 mg/kg oral): 0.67 ± 0.02 number of adhering cells × 10^-6; adhering cells, percent of control ([3]; 40 mg/kg oral): 67.9% of control; number of adhering cells ([3]; 40 mg/kg oral): 0.55 ± 0.22 number of adhering cells × 10^-6 |
